Measurements as given in PubChem BioAssay AID1963959 (Molecular Pharmacology Branch, DTP, NCI, 2024).

Tested on: T-47D spheroids with HUVEC/MSC, viability
Experiment: Anticancer human tumor T-47D cell line growth inhibition [PI3K];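 further: spheroids exposed to agents for seven days before reading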;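 on viability, T/C: percent of DMSO vehicle control luminescence so 100% = untreated growth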
Conditions: for viability, T/C: stronger effect = lower value; active means viability on the fitted dose curve at most 10% of control; inactive means the rest
In short: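 Complex 3D spheroids (cancer cells + endothelial HUVEC + mesenchymal stem cells); drug pairs of targeted agent x inavolisib/alpelisib/duvelisib/copanlisib; half-log series from ~Cmax, max 10 microM if Cmax unknown; endpoint viability.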

[1] = curve of first compound, second compound 0.0316 µM
[2] = curve of first compound, second compound 0.1 µM
[3] = curve of first compound, second compound 0.316 µM
[4] = curve of first compound, second compound 1 µM
[5] = curve of first compound, second compound 3.16 µM
[6] = curve of first compound, second compound 10 µM
[7] = second compound 0.0316 µM, first compound 0.0316 µM
[8] = second compound 0.0316 µM, first compound 0.1 µM
[9] = second compound 0.1 µM, first compound 0.0316 µM
[10] = second compound 0.1 µM, first compound 0.1 µM
[11] = second compound 0.316 µM, first compound 0.0316 µM
[12] = second compound 0.316 µM, first compound 0.1 µM
[13] = second compound 1 µM, first compound 0.0316 µM
[14] = second compound 1 µM, first compound 0.1 µM
[15] = second compound 3.16 µM, first compound 0.0316 µM
[16] = second compound 3.16 µM, first compound 0.1 µM
[17] = second compound 10 µM, first compound 0.0316 µM
[18] = second compound 10 µM, first compound 0.1 µM

C#Cc1c(F)ccc2cc(O)cc(-c3ncc4c(N5CC6CCC(C5)N6)nc(OCC56CCCN5CC(F)C6)nc4c3F)c12 (stereo not given) + CC(Nc1ncnc2nc[nH]c12)c1cc2cccc(Cl)c2c(=O)n1-c1ccccc1
> 10 µM: IC50 [1] | IC50 [2] | IC50 [3] | IC50 [4] | IC50 [5] | IC50 [6]
inactive: viability, T/C [7] 101% | viability, T/C [8] 116% | viability, T/C (second compound 0.0316 µM, first compound 0.316 µM) 96.5% | viability, T/C (second compound 0.0316 µM, first compound 1 µM) 106% | viability, T/C (second compound 0.0316 µM, first compound 3.16 µM) 102% | viability, T/C (second compound 0.0316 µM, first compound 10 µM) 104% | viability, T/C [9] 96.4% | viability, T/C [10] 86.3% | viability, T/C (second compound 0.1 µM, first compound 0.316 µM) 106% | viability, T/C (second compound 0.1 µM, first compound 1 µM) 106% | viability, T/C (second compound 0.1 µM, first compound 3.16 µM) 110% | viability, T/C (second compound 0.1 µM, first compound 10 µM) 89.3% | viability, T/C [11] 109% | viability, T/C [12] 80.9% | viability, T/C (second compound 0.316 µM, first compound 0.316 µM) 104% | viability, T/C (second compound 0.316 µM, first compound 1 µM) 95.2% | viability, T/C (second compound 0.316 µM, first compound 3.16 µM) 106% | viability, T/C (second compound 0.316 µM, first compound 10 µM) 97.8% | viability, T/C [13] 92.4% | viability, T/C [14] 116% | viability, T/C (second compound 1 µM, first compound 0.316 µM) 97.5% | viability, T/C (second compound 1 µM, first compound 1 µM) 76.7% | viability, T/C (second compound 1 µM, first compound 3.16 µM) 116% | viability, T/C (second compound 1 µM, first compound 10 µM) 93.1% | viability, T/C [15] 92.6% | viability, T/C [16] 93.5% | viability, T/C (second compound 3.16 µM, first compound 0.316 µM) 101% | viability, T/C (second compound 3.16 µM, first compound 1 µM) 84.3% | viability, T/C (second compound 3.16 µM, first compound 3.16 µM) 86.8% | viability, T/C (second compound 3.16 µM, first compound 10 µM) 86% | viability, T/C [17] 107% | viability, T/C [18] 91.3% | viability, T/C (second compound 10 µM, first compound 0.316 µM) 109% | viability, T/C (second compound 10 µM, first compound 1 µM) 87.9% | viability, T/C (second compound 10 µM, first compound 3.16 µM) 97.3% | viability, T/C (second compound 10 µM, first compound 10 µM) 89.6%

Cn1ncc(Cl)c1-c1cc(C(=O)NC(CN)Cc2cccc(F)c2)sc1Cl (stereo not given)
> 10 µM: IC50 (curve of compound)
inactive: viability, T/C (compound 0.0316 µM) 102% [middle of 4 runs] | viability, T/C (compound 0.316 µM) 79.4% [middle of 4 runs] | viability, T/C (compound 1 µM) 81.8% [middle of 4 runs] | viability, T/C (compound 3.16 µM) 70.3% [middle of 4 runs] | viability, T/C (compound 10 µM) 89% [middle of 4 runs]

CC(=O)c1c(C)c2cnc(Nc3ccc(N4CCNCC4)cn3)nc2n(C2CCCC2)c1=O + Cc1nc(NC(=O)N2CCCC2C(N)=O)sc1-c1ccnc(C(C)(C)C(F)(F)F)c1
0.0304 µM: IC50 [5]
< 0.000316 µM: IC50 [6]
inactive: viability, T/C (second compound 0.0316 µM, first compound 0.000316 µM) 109% | viability, T/C (second compound 0.0316 µM, first compound 0.001 µM) 101% | viability, T/C (second compound 0.0316 µM, first compound 0.00316 µM) 98.8% | viability, T/C (second compound 0.0316 µM, first compound 0.01 µM) 98.4% | viability, T/C [7] 92.1% | viability, T/C [8] 89.2% | viability, T/C (second compound 0.1 µM, first compound 0.000316 µM) 101% | viability, T/C (second compound 0.1 µM, first compound 0.001 µM) 100% | viability, T/C (second compound 0.1 µM, first compound 0.00316 µM) 95.8% | viability, T/C (second compound 0.1 µM, first compound 0.01 µM) 107% | viability, T/C [9] 95.5% | viability, T/C [10] 83% | viability, T/C (second compound 0.316 µM, first compound 0.000316 µM) 98.3% | viability, T/C (second compound 0.316 µM, first compound 0.001 µM) 110% | viability, T/C (second compound 0.316 µM, first compound 0.00316 µM) 88% | viability, T/C (second compound 0.316 µM, first compound 0.01 µM) 99.5% | viability, T/C [11] 95.2% | viability, T/C [12] 75.3% | viability, T/C (second compound 1 µM, first compound 0.000316 µM) 98.4% | viability, T/C (second compound 1 µM, first compound 0.001 µM) 90.7% | viability, T/C (second compound 1 µM, first compound 0.00316 µM) 85.9% | viability, T/C (second compound 1 µM, first compound 0.01 µM) 82.7% | viability, T/C [13] 86.6% | viability, T/C [14] 61.8% | viability, T/C (second compound 3.16 µM, first compound 0.000316 µM) 65.7% | viability, T/C (second compound 3.16 µM, first compound 0.001 µM) 66.8% | viability, T/C (second compound 3.16 µM, first compound 0.00316 µM) 69.3% | viability, T/C (second compound 3.16 µM, first compound 0.01 µM) 64.2% | viability, T/C [15] 49.6% | viability, T/C [16] 42.6% | viability, T/C (second compound 10 µM, first compound 0.000316 µM) 37.1% | viability, T/C (second compound 10 µM, first compound 0.001 µM) 39.8% | viability, T/C (second compound 10 µM, first compound 0.00316 µM) 35.1% | viability, T/C (second compound 10 µM, first compound 0.01 µM) 31.3% | viability, T/C [17] 23.1% | viability, T/C [18] 29.3%
> 0.1 µM: IC50 [1] | IC50 [2] | IC50 [3] | IC50 [4]
